The source of these data is ChEMBL document CHEMBL5316381, “Discovery of [1,2,3]Triazolo[4,5-c]quinoline Derivatives as a New Class of Ataxia-Telangiectasia Mutated Kinase Inhibitors” (ACS Med Chem Lett, 2023).

Active and inactive are the calls of the source. The rule behind the calls is not given here.

Data set [1] deals with HCT-116. Kind of data set: Induction of apoptosis in human HCT-116 cells assessed as necrotic cells at 100 nM measured after 72 hrs by Annexin V-FITC staining based flow cytometric analysis (reference value: 2.41%). Format: functional. A general note: In flow cytometry, cells or beads pass a laser one at a time.
Data set [2] has as its system HCT-116. Kind of data set: Induction of apoptosis in human HCT-116 cells assessed as necrotic cells at 30 nM measured after 72 hrs in presence of CPT-11 by Annexin V-FITC staining based flow cytometric analysis (reference value: 2.41%). In kind it is functional.
Data set [3] concerns HCT-116. In words: Induction of apoptosis in human HCT-116 cells assessed as early apoptotic cells at 1 uM measured after 72 hrs by Annexin V-FITC staining based flow cytometric analysis (reference value: 4.06%). Format: functional.
Data set [4] can be described thus: Toxicity in BALB/c mouse xenografted with human SW620 cells assessed as kidney damage at 5 mg/kg, ip administered once daily and measured after 23 days by H&E staining based microscopic analysis. As to conditions: in vivo, 552 h, time 23 day. In kind it is organism-based, SW-620.
The subject of data set [5] is HCT-116. Kind of data set: Induction of apoptosis in human HCT-116 cells assessed as early apoptotic cells at 100 nM measured after 72 hrs by Annexin V-FITC staining based flow cytometric analysis (reference value: 4.06%). Format: functional.
The target of data set [6] is Serine/threonine-protein kinase Chk2 (Homo sapiens) (UniProt O96017). In words: Inhibition of CPT-11 induced Chk2 phosphorylation in human SW620 cells by SDS-PAGE based Westernblot analysis. Format: cell-based.
Serine/threonine-protein kinase Chk2 (Homo sapiens), sequence (O96017 whole entry): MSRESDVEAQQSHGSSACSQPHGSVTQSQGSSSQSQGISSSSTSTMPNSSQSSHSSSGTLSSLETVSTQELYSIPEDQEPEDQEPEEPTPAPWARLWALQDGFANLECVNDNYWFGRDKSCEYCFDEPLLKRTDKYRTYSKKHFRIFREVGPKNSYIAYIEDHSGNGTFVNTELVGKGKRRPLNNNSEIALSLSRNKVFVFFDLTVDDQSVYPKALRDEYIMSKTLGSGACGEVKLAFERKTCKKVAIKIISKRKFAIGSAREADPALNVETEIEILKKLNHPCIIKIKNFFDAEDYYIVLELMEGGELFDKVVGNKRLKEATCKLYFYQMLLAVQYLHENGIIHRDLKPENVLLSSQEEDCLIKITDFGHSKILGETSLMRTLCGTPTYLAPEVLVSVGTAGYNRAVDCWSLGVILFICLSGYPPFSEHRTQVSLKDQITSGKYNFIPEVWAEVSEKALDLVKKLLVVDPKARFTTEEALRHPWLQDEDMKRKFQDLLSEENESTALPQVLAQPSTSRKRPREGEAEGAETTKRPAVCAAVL
Data set [7] deals with HCT-116. Kind of data set: Induction of apoptosis in human HCT-116 cells assessed as viable cells at 100 nM measured after 72 hrs in presence of CPT-11 by Annexin V-FITC staining based flow cytometric analysis (reference value: 73.74%). In kind it is functional. As to conditions: read-out: Activity.
In data set [8] the test system is SW-620. In words: Induction of apoptosis in human SW620 cells assessed as late apoptotic cells at 30 nM measured after 72 hrs in presence of CPT-11 by Annexin V-FITC staining based flow cytometric analysis (reference value: 5.75%). Format: functional.
Data set [9] deals with SW-620. Kind of data set: Induction of apoptosis in human SW620 cells assessed as viable cells at 100 nM measured after 72 hrs in presence of CPT-11 by Annexin V-FITC staining based flow cytometric analysis (reference value: 87.36%). In kind it is functional. The note with it: read-out: Activity.
For data set [10], the system named is SW-620. In words: Induction of apoptosis in human SW620 cells assessed as viable cells at 100 nM measured after 72 hrs by Annexin V-FITC staining based flow cytometric analysis (reference value: 87.36%). In kind it is functional. As to conditions: read-out: Activity.
A short description of data set [11]: Toxicity in BALB/c mouse xenografted with human SW620 cells assessed as lung damage at 5 mg/kg, ip administered once daily and measured after 23 days by H&E staining based microscopic analysis. Format: organism-based, SW-620. As to conditions: in vivo, 552 h, time 23 day.
Data set [12] concerns SW-620. In words: Antiproliferative activity against human SW620 cells assessed as reduction in colony formation at 27 nM measured after 14 days by crystal violet staining based microscopic analysis. The note with it: time 14.0 day. Format: functional, cell-based.
For data set [13], the system named is SW-620. Kind of data set: Induction of apoptosis in human SW620 cells assessed as necrotic cells at 10 nM measured after 72 hrs in presence of CPT-11 by Annexin V-FITC staining based flow cytometric analysis (reference value: 5.83%). Format: functional.
For data set [14], the system named is HCT-116. In words: Cell cycle arrest in human HCT-116 cells assessed as accumulation of cells at G2/M phase incubated for 24 hrs in presence of CPT-11 by PI staining based flow cytometric analysis. In kind it is functional. The note with it: dose 10-100 nM.
Data set [15] concerns the target Serine/threonine-protein kinase ATR (Homo sapiens, UniProt Q13535). In words: Inhibition of ATR (unknown origin) using GST-cMyc-p53 as substrate incubated for 30 mins in the presence of Mg/ATP mix by HTRF-based analysis. Background: Time-resolved FRET reads energy transfer from a long-lived donor to a nearby acceptor.
Data set [16] concerns HCT-116. In words: Induction of apoptosis in human HCT-116 cells assessed as late apoptotic cells at 100 nM measured after 72 hrs in presence of CPT-11 by Annexin V-FITC staining based flow cytometric analysis (reference value: 19.80%). In kind it is functional.

Serine/threonine-protein kinase ATR, sequence (Q13535 whole entry): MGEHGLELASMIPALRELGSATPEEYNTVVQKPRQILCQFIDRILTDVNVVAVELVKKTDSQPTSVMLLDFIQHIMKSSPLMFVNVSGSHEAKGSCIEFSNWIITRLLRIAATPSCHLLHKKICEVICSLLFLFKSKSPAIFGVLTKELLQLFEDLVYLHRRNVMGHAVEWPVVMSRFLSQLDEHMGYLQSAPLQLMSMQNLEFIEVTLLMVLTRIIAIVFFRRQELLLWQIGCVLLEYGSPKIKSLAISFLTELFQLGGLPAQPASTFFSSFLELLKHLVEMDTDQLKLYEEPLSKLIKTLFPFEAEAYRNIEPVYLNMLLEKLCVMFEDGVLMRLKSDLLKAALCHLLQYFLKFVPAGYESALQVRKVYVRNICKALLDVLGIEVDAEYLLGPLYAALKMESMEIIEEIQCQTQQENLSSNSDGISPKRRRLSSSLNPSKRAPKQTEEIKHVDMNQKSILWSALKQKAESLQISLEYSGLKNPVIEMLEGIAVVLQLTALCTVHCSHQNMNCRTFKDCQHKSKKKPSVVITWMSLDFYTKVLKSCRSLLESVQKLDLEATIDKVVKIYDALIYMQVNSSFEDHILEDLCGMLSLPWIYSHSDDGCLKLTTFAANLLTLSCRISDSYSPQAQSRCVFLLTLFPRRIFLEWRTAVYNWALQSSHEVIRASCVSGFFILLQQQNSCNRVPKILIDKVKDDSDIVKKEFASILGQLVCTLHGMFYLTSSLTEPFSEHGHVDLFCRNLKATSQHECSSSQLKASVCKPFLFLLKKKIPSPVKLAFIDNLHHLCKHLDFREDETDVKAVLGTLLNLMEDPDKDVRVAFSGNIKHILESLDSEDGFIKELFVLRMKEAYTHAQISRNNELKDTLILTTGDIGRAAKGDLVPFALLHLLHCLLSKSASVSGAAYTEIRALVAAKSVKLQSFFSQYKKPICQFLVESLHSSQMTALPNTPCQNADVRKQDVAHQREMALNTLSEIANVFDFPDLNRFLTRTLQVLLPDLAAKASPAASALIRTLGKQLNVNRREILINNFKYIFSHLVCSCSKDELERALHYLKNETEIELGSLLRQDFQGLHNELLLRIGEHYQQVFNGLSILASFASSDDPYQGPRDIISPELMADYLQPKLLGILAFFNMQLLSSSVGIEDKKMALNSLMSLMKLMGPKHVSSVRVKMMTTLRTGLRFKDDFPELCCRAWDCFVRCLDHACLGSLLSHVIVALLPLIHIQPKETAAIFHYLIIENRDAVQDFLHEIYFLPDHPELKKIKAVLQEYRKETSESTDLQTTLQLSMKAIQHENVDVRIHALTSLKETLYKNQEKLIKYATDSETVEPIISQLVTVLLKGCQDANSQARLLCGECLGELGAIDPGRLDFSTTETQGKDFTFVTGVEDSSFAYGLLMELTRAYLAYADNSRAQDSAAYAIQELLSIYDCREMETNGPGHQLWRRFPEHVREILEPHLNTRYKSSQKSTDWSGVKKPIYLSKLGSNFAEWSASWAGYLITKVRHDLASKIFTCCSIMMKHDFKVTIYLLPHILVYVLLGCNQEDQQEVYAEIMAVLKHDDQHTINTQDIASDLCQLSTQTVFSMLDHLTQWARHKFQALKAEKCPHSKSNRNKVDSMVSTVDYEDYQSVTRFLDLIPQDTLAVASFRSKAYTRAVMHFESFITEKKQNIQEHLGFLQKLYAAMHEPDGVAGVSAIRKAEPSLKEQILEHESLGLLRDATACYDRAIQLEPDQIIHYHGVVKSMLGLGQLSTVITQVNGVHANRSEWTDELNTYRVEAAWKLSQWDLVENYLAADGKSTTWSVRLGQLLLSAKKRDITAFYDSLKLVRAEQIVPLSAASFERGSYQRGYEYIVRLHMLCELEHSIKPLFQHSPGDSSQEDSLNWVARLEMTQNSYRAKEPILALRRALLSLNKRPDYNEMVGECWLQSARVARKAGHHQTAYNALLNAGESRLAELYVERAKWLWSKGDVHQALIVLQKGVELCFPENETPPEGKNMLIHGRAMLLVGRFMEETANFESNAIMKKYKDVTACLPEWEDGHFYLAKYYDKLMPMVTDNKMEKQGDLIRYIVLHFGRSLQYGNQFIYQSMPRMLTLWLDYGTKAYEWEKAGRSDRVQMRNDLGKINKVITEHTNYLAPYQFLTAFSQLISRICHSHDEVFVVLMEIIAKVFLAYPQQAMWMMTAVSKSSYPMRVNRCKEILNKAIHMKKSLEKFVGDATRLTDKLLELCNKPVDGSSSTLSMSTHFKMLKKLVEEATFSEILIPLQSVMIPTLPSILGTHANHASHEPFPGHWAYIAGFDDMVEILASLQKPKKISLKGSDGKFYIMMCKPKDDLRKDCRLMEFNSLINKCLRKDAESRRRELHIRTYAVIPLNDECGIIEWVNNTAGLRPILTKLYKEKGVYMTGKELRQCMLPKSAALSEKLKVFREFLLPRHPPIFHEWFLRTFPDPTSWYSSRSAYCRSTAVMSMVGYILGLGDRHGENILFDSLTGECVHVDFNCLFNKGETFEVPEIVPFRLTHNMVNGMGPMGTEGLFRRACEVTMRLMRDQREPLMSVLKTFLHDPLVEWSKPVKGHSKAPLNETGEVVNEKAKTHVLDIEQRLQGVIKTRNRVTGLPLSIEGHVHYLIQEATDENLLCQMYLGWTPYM

As a reminder, the IC50 is the concentration that inhibits the measured activity by half. With `C[C@H](c1ccccc1)n1nnc2cnc3ccc(-c4ccc(OCCCN(C)C)nc4)cc3c21`, the Activity in [1] is 9.24%; in data set [2], 8.39%; in data set [3], 1.34%; in [4] it was “Non-Toxic”; in data set [5] it was 1.21%; in data set [8], 44%. Further, the Activity result is “Non-Toxic” in data set [11], 5.94% in data set [13], “Dose-Dependent Effect” in data set [14] and 68.15% in [16]. Further, the inhibition entry in [6] was “Dose-Dependent Effect”. Besides, the viability at 0.1 µM in data set [7] is 22%; in data set [9] it was 30.5%; in data set [10] it was 80.2%. In data set [12], the result was inactive. In addition, the half-inhibitory concentration (IC50) in data set [15] is > 10 µM.
